Where two headings read alike, the source gives them in different places.
Columns and labels:
[1] = Phospholipid binding at pH 7.4 on IAM PC.DD2 HPLC column; type: physicochemical; parameters: key to CHI IAM: approximates acetonitrile concentration (%) in mobile phase at elution; details: for log k IAM: pH 7.4, derived from CHI IAM by equation 1; for CHI IAM: pH 7.4
Method: The phospholipid-binding was measured using an IAM PC.DD2 column with dimensions of 100 x 4.6 mm (Regis Technologies Inc., Morton Grove, IL, USA). The gradient retention times were measured using a 50 mM ammonium acetate mobile phase with the pH adjusted to 7.4. The mobile phase flow rate was 1.5 mL/min. […] The cycle time was 6 min, plus an additional 1 min equilibration time was applied while the injector prepared for the next injection. The gradient retention times were calibrated with the acetophenone homologues for which the CHI IAM values have been established using isocratic measurements. […] The CHI Index on the IAM column (CHI IAM) approximates the acetonitrile concentration in the mobile phase when the compound elutes. […] The CHI IAM values have been converted to log k IAM values derived from the CHI IAM values using equation 1. It represents the equivalent value derived from several isocratic measurements with extrapolated log retention factors to 100 % aqueous mobile phase. The log k IAM values can be converted to log K (IAM) values and show linear relationships with the octanol/water partition coefficients.

[2] = CHI lipophilicity by gradient reversed-phase HPLC (Gemini NX-C-18); details: for chromatographic logD: Gemini NX-C-18 reversed-phase HPLC column, pH 7.4; for chromatographic logP: reversed-phase HPLC, Gemini NX-C-18 column (50 x 3 mm, 5 µm)
Method: The Chromatographic Hydrophobicity Index (CHI) was measured using the compounds’ calibrated gradient retention times obtained from an Agilent 1100 HPLC fitted with a Gemini NX-C-18 column (Phenomenex Ltd Macclesfield, UK) with dimensions of 50 x 3 mm and 5 μm particle size. […] The mobile phase B was 100 % acetonitrile. […] An acetonitrile linear gradient was used from 0 to 100 %. […] The retention time values for a standard set of compounds listed in Table 1 were used to convert the drug retention times to CHI values.

[3] = target: human serum albumin (HSA) (Homo sapiens, UniProt P02768); assay: Protein binding on Chiralpak HSA HPLC column
Method: (§1) The measurement of the biomimetic properties of the available drugs was conducted in our laboratories. Generic gradient HPLC methods were used to determine the chromatographic hydrophobicity Index (CHI) using mobile phases at three different pH values. The protein binding of the compounds was measured using immobilised human serum albumin (HSA), and alpha-1-acid-glycoprotein (AGP) stationary phases. The phospholipid-binding was measured using the immobilised artificial membrane (IAM) stationary phase. The aim was to establish relationships between the cardiotoxicity potential and the biomimetic binding properties of the drugs and to evaluate their predictive performance.

[4] = Charge character of the drugs at pH 7.4; type: physicochemical
[5] = test system: alpha-1-acid-glycoprotein (AGP); assay: Protein binding on Chiralpak AGP HPLC column
Method: as §1

hERG channel = details: cited from earlier work
[6] = literature values, mean where several reported, molar

human serum albumin (HSA), sequence (P02768 25-609): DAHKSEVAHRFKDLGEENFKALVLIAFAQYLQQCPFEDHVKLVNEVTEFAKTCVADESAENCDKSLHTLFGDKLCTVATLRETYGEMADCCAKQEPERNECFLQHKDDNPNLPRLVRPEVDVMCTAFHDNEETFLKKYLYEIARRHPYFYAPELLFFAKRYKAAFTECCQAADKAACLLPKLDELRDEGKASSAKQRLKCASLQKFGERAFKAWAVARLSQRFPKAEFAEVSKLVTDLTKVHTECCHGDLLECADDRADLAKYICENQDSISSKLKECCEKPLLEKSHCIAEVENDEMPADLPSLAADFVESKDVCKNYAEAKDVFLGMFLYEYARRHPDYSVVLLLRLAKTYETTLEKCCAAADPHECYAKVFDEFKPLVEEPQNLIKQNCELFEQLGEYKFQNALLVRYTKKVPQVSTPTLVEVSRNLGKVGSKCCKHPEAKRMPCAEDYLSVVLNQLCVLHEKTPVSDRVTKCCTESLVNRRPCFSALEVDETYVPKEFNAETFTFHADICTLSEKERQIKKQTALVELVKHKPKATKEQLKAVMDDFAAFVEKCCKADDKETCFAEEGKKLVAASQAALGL

| log k IAM [1] | chromatographic logD [2] | chromatographic logP [2] | Charge [4] | log k AGP ([5]; pH 7.4, Chiralpak AGP) | CHI IAM [1] | log k HSA ([3]; human, pH 7.4) | log k AGP ([5]; pH 7.4) | Structure (SMILES) | log k HSA ([3]; pH 7.4, Chiralpak HSA) | hERG pIC50 (hERG channel; [6]) | hERG pIC50 (hERG channel) |
| --- | --- | --- | --- | --- | --- | --- | --- | --- | --- | --- | --- |
| 2.00 | 1.43 | 2.01 | Basic | 0.60 | – | – | – | CCOc1ccccc1OCCN[C@H](C)Cc1ccc(OC)c(S(N)(=O)=O)c1 [Tamsulosin] | 0.36 | 4.89 | – |
| 2.83 | 2.6 | 3.05 | Weak Base | 0.99 | 52.42 | – | – | CN1CCN(C2=Nc3cc(Cl)ccc3Nc3ccccc32)CC1 [Clozapine] | 1.04 | – | – |
| 2.53 | 0.79 | 2.5 | Basic | 0.52 | – | – | – | CN1C2CCCC1CC(NC(=O)c1nn(C)c3ccccc13)C2 (stereo not shown) [Granisetron] | 0.34 | – | – |
| 2.85 | 2.47 | 3.81 | Basic | 1.04 | – | – | – | CCCN1C[C@H](CSC)C[C@@H]2c3cccc4[nH]cc(c34)C[C@H]21 [Pergolide] | 0.73 | 6.52 | – |
| 3.12 | 3.84 | 5.05 | Basic | 0.94 | – | – | – | CCCOC(C(=O)OC1CCN(C)CC1)(c1ccccc1)c1ccccc1 [Propiverine] | 1.01 | 5.22 | – |
| 3.08 | 4.4 | 6.62 | Basic | 1.14 | – | – | – | CC(C)COCC(CN(Cc1ccccc1)c1ccccc1)N1CCCC1 (stereo not shown) [Bepridil] | 1.27 | 6.42 | – |
| 2.42 | 1.37 | 2.13 | Weak Base | – | 43.47 | – | – | O=c1[nH]c2ccccc2n1CCCN1CCC(n2c(=O)[nH]c3cc(Cl)ccc32)CC1 [Domperidone] | 1.02 | – | – |
| 2.05 | 0.77 | – | Basic | -0.27 | 35.38 | – | – | COCCc1ccc(OCC(O)CNC(C)C)cc1 (stereo not shown) [Metoprolol] | -0.72 | 3.84 | – |
| – | – | – | Basic | – | – | 0.15 | 0.23 | CCN(CC)CCNC(=O)c1cc(Cl)c(N)cc1OC [Metoclopramide] | – | 5.27 | – |
| 2.64 | -0.58 | 0.97 | Basic | 1.79 | 48.16 | – | – | CN(C)CCCN1c2ccccc2Sc2ccc(Cl)cc21 [Chlorpromazine] | – | 5.65 | – |
| 2.61 | 2.92 | 3.5 | Weak Base | 1.13 | – | – | – | OCCN1CCN(CCCN2c3ccccc3Sc3ccc(Cl)cc32)CC1 [Perphenazine] | – | 5.88 | – |
| – | – | – | Zwitterionic | – | – | 0.54 | – | COc1c(N2C[C@@H]3CCCN[C@@H]3C2)c(F)cc2c(=O)c(C(=O)O)cn(C3CC3)c12 [Moxifloxacin] | – | 3.83 | – |
| 2.36 | 3.31 | 3.39 | Weak Base | 1.59 | 42.17 | – | – | CC(C)(C)NC(=O)[C@@H]1C[C@@H]2CCCC[C@@H]2CN1C[C@@H](O)[C@H](Cc1ccccc1)NC(=O)[C@H](CC(N)=O)NC(=O)c1ccc2ccccc2n1 [Saquinavir] | – | 5.82 | – |
| 2.12 | 2.76 | 2.97 | Neutral | 0.50 | 36.93 | – | – | CC(=O)S[C@@H]1CC2=CC(=O)CC[C@]2(C)[C@H]2CC[C@@]3(C)[C@@H](CC[C@@]34CCC(=O)O4)[C@H]12 [Spironolactone] | 0.78 | – | – |
| 3.55 | 3.8 | 5.14 | Basic | 1.19 | – | – | – | CN1CCN(CCCN2c3ccccc3Sc3ccc(C(F)(F)F)cc32)CC1 [Trifluoperazine] | – | 5.72 | – |
| 2.79 | 1.72 | 4.7 | Weak Base | 1.03 | – | – | – | CNCCCC1c2ccccc2C=Cc2ccccc21 [Protriptyline] | – | 5.30 | – |
| – | 2.26 | 2.68 | Weak Base | 1.69 | – | – | – | O=C(CCCN1CC=C(n2c(=O)[nH]c3ccccc32)CC1)c1ccc(F)cc1 [Droperidol] | 0.98 | – | – |

| Structure (SMILES) | log k IAM [1] | chromatographic logD [2] | chromatographic logP [2] | Charge [4] | log k AGP ([5]; pH 7.4, Chiralpak AGP) | CHI IAM [1] | log k HSA ([3]; human, pH 7.4) | log k AGP ([5]; pH 7.4) | log k HSA ([3]; pH 7.4, Chiralpak HSA) | hERG pIC50 (hERG channel; [6]) | hERG pIC50 (hERG channel) |
| --- | --- | --- | --- | --- | --- | --- | --- | --- | --- | --- | --- |
| CN(CCOc1ccc(NS(C)(=O)=O)cc1)CCc1ccc(NS(C)(=O)=O)cc1 [Dofetilide] | – | 1.18 | 1.12 | Weak Base | 0.59 | – | – | – | -0.05 | – | 5.72 |
| COc1ccc(CN(CCN(C)C)c2ccccn2)cc1 [Pyrilamine] | 2.56 | 1.72 | 3.32 | Basic | 0.49 | 46.62 | – | – | 0.44 | – | 5.18 |
| COc1cc2nc(N3CCN(C(=O)C4COc5ccccc5O4)CC3)nc(N)c2cc1OC (stereo not shown) [Doxazosin] | 2.16 | 2.09 | 2.24 | Weak Base | 0.72 | – | – | – | 1.04 | 6.03 | – |
| O=C1Cc2cc(CCN3CCN(c4nsc5ccccc45)CC3)c(Cl)cc2N1 [Ziprasidone] | 2.62 | 2.98 | 2.96 | Weak Base | 1.09 | 47.92 | – | – | 1.42 | – | 6.44 |
| COc1cc2nc(N(C)CCCNC(=O)C3CCCO3)nc(N)c2cc1OC (stereo not shown) [Alfuzosin] | – | – | – | – | 0.32 | – | – | – | 0.08 | – | 4.28 |
| O=c1[nH]c2ccccc2n1C1CCN(CCCC(c2ccc(F)cc2)c2ccc(F)cc2)CC1 [Pimozide] | 2.83 | 3.03 | 3.89 | Weak Base | 1.47 | – | – | – | 1.41 | – | 6.43 |
| OC(c1cc(C(F)(F)F)nc2c(C(F)(F)F)cccc12)C1CCCCN1 (stereo not shown) [Mefloquine] | – | 2.18 | 4.22 | Basic | 1.11 | – | – | – | 1.38 | – | 5.45 |
| CC[C@H]1OC(=O)[C@H](C)[C@@H](O[C@H]2C[C@@](C)(OC)[C@@H](O)[C@H](C)O2)[C@H](C)[C@@H](O[C@@H]2O[C@H](C)C[C@H](N(C)C)[C@H]2O)[C@](C)(OC)C[C@@H](C)C(=O)[C@H](C)[C@@H](O)[C@]1(C)O [Clarithromycin] | 2.70 | 1.9 | 4.55 | Basic | 0.20 | 49.68 | – | – | -0.24 | – | 4.32 |
| COc1cc(N)c(Cl)cc1C(=O)NC1CCN(CCCOc2ccc(F)cc2)CC1OC (stereo not shown) [Cisapride] | 2.35 | 2.65 | 3.17 | Basic | 0.84 | – | – | – | 1.11 | – | 6.88 |
| CN(C)CCC(c1ccc(Br)cc1)c1ccccn1 (stereo not shown) [Brompheniramine] | 2.8 | 1.74 | 4.27 | Basic | 0.68 | – | – | – | 0.68 | 5.61 | – |
| C[C@H]1COc2c(N3CCN(C)CC3)c(F)cc3c(=O)c(C(=O)O)cn1c23 [Levofloxacin] | 1.73 | 0.54 | – | Zwitterionic | -0.74 | 28.55 | – | – | – | – | 2.93 |

— paper PMC8920097, “Prediction of hERG inhibition of drug discovery compounds using biomimetic HPLC measurements” (ADMET & DMPK, 2021)
